US7420001B2 (Wyeth, priority 2003, dated 2008)
Where a name gives a salt, the structure may show the parent alone.

Experiments:
MMP-2 = target: T1, MMP-2 (Homo sapiens, UniProt P08253); assay: In-vitro fluorescence assay of MMP-2 activity; type: biochemical; settings: recombinant human MMP-2; read-out: MMP-2 IC50
T1 construct: purchased Oncogene Research Products (Calbiochem) PF023
T1 sequence (P08253 110-660): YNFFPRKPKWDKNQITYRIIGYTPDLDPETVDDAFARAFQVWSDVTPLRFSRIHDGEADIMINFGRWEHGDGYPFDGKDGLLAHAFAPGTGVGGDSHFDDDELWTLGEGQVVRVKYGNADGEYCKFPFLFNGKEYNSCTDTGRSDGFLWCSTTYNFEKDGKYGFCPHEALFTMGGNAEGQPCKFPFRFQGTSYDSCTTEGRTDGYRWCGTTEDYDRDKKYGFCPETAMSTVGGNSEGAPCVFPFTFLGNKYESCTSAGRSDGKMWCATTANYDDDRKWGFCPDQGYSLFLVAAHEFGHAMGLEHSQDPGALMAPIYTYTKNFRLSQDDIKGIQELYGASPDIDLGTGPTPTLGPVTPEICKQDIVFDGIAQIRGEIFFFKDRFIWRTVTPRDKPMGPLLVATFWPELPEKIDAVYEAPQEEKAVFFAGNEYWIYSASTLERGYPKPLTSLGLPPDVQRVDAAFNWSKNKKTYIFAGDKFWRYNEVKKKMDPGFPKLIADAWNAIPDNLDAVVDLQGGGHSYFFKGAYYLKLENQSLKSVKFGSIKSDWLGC

MMP-13 = target: T2, MMP-13 (Homo sapiens, UniProt P45452); assay: In-vitro fluorescence assay of MMP-13 activity; type: biochemical; settings: recombinant human catalytic domain of MMP-13; read-out: MMP-13 IC50
T2 construct: made in house

Row | IC50 (MMP-2) [nM] | IC50 (MMP-13) [nM] | Structure (SMILES)
1 | 13200 | 70 | Cc1c(C(=O)Nc2ccc(-c3ccc(S(=O)(=O)N(C)[C@H](C(=O)O)C(C)C)cc3)cc2)oc2cccc(C(O)CO)c12 (stereo partly drawn) [Example 99, N-{[4′-({[4-(1,2-dihydroxyethyl)-3-methyl-1-benzofuran-2-yl]carbonyl}amino)-1,1′-biphenyl-4-yl]sulfonyl}-N-methyl-L-valine]
2 | 2380 | 20 | CC(=O)N(C)c1cccc2oc(C(=O)Nc3ccc(-c4ccc(S(=O)(=O)N[C@H](C(=O)O)C(C)C)cc4)cc3)c(C)c12 [Example 55, L-2-(4′-{[4-(Acetyl-methyl-amino)-3-methyl-benzofuran-2-carbonyl]-amino}-biphenyl-4-sulfonylamino)-3-methyl-butyric acid]
3 | 2400 | 2.6 | COCc1cccc2oc(C(=O)Nc3ccc(-c4ccc(S(=O)(=O)N[C@H](C(=O)O)C(C)C)cc4)cc3)c(C)c12 [Example 100, N-{[4′-({[4-(methoxymethyl)-3-methyl-1-benzofuran-2-yl]carbonyl}amino)-1,1′-biphenyl-4-yl]sulfonyl}-L-valine]
4 | 3380 | 6.2 | Cc1c(C(=O)Nc2ccc(-c3ccc(S(=O)(=O)N[C@H](C(=O)O)C(C)C)cc3)cc2)oc2cccc(C#CCO)c12 [Example 26, L-2-(4′-{[4-(3-Hydroxy-prop-1-ynyl)-3-methyl-benzofuran-2-carbonyl]-amino}-biphenyl-4-sulfonylamino)-3-methyl-butyric acid]
5 | 6720 | 22 | CNC(=O)c1cccc2oc(C(=O)Nc3ccc(-c4ccc(S(=O)(=O)N[C@H](C(=O)O)C(C)C)cc4)cc3)c(C)c12 [Example 43A, (L-3-methyl-2-{4′-[(3-methyl-4-methylcarbamoyl-benzofuran-2-carbonyl)-amino]-biphenyl-4-sulfonylamino}-butyric acid triethylamine salt]
6 | 13300 | 13 | Cc1c(C(=O)Nc2ccc(-c3ccc(S(=O)(=O)N[C@H](C(=O)O)C(C)C)cc3)cc2)oc2cccc(-c3nn[nH]n3)c12 [Example 56, L-3-Methyl-2-(4′-{[3-methyl-4-(2H-tetrazol-5-yl)-benzofuran-2-carbonyl]-amino}-biphenyl-4-sulfonylamino)-butyric acid]
7 | 7770 | 18 | Cc1c(C(=O)Nc2ccc(-c3ccc(S(=O)(=O)N[C@H](C(=O)O)C(C)C)cc3)cc2)oc2cccc(C(=O)N(C)C)c12 [Example 43B, 2-{4′-[(4-dimethylcarbamoyl-3-methyl-benzofuran-2-carbonyl)-amino]-biphenyl-4-sulfonylamino}-3-methyl-butyric acid triethylamine salt]
8 | 64 | 1.2 | COc1c(C#N)ccc2oc(COc3ccc(-c4ccc(S(=O)(=O)N[C@H](C(=O)O)C(C)C)cc4)cc3)c(C)c12 [Example 143, L-2-[4′-(5-Cyano-4-methoxy-3-methylbenzofuran-2-ylmethoxy)-biphenyl-4-sulfonylamino]-3-methyl butyric acid]
9 | 0.4 | 0.4 | CC(C)[C@H](NS(=O)(=O)c1ccc(-c2ccc(NC(=O)c3nc4ccccc4[nH]3)cc2)cc1)C(=O)O [Example 52, L-2-{4′-[(1H-Benzoimidazole-2-carbonyl)-amino]-biphenyl-4-sulfonylamino}-3-methyl-butyric acid]
10 | 2860 | 14 | Cc1c(C(=O)Nc2ccc(-c3ccc(S(=O)(=O)N[C@H](C(=O)O)C(C)C)cc3)cc2)oc2cccc(C(O)CO)c12 (stereo partly drawn) [Example 97, N-{[4′-({[4-(1,2-dihydroxyethyl)-3-methyl-1-benzofuran-2-yl]carbonyl}amino)-1,1′-biphenyl-4-yl]sulfonyl}-L-valine]
11 | 5750 | 20 | Cc1c(C(=O)Nc2ccc(-c3ccc(S(=O)(=O)N[C@H](C(=O)O)C(C)C)cc3)cc2)oc2cccc(NC(=O)C(F)(F)F)c12 [Example 67, L-3-Methyl-2-(4′-{[3-methyl-4-(2,2,2-trifluoro-acetylamino)-benzofuran-2-carbonyl]-amino}-biphenyl-4-sulfonylamino)-butyric acid]
12 | 673 | 4.5 | CC(=O)c1cccc2oc(C(=O)Nc3ccc(-c4ccc(S(=O)(=O)N[C@H](C(=O)O)C(C)C)cc4)cc3)c(C)c12 [Example 94, N-[(4′-{[(4-Acetyl-3-methyl-1-benzofuran-2-yl)carbonyl]amino}-1,1′-biphenyl-4-yl)sulfonyl]-L-valine]
13 | 2340 | 16 | Cc1c(C(=O)Nc2ccc(-c3ccc(S(=O)(=O)N[C@H](C(=O)O)C(C)C)cc3)cc2)oc2cccc(N(C)S(C)(=O)=O)c12 [Example 37, L-2-(4′-{[4-(Methanesulfonyl-methyl-animo)-3-methyl-benzofuran-2-carbonyl]-amino}-biphenyl-4-sulfonylamino)-3-methyl-butyric acid]
14 | 4340 | 20 | Cc1c(C(=O)Nc2ccc(-c3ccc(S(=O)(=O)N[C@H](C(=O)O)C(C)C)cc3)cc2)oc2cccc(OCC(=O)N(C)C)c12 [Example 176, (S)-2-{4′-[(4-Dimethylcarbamoylmethoxy-3-methyl-benzofuran-2-carbonyl)-amino]-biphenyl-4-sulfonylamino}-3-methyl-butyric acid]
15 | 47 | 0.8 | CC(C)[C@H](NS(=O)(=O)c1ccc(-c2ccc(NC(=O)c3nc4ccccc4o3)cc2)cc1)C(=O)O [Example 127, (S)-3-Methyl-2-{4′-[(benzooxazole-2-carbonyl)-amino]-biphenyl-4-sulfonylamino}-butyric acid]
16 | 2230 | 6.9 | Cc1c(C(=O)Nc2ccc(-c3ccc(S(=O)(=O)N[C@H](C(=O)O)C(C)C)cc3)cc2)oc2cccc(C3COC(C)(C)O3)c12 (stereo partly drawn) [Example 91, N-{[4′-({[4-(2,2-Dimethyl-1,3-dioxolan-4-yl)-3-methyl-1-benzofuran-2-yl]carbonyl}amino)-1,1′-biphenyl-4-yl]sulfonyl}-L-valine]
17 | 379 | 6.1 | Cc1c(C(=O)Nc2ccc(-c3ccc(S(=O)(=O)N[C@H](C(=O)O)C(C)C)cc3)cc2)oc2cccc(O)c12 [Example 161, L-2-{4′-[(4-Hydroxy-3-methyl-benzofuran-2-carbonyl)-amino]-biphenyl-4-sulfonylamino}-3-methyl-butyric acid]
18 | 4220 | 11 | CCCOc1cccc2oc(C(=O)Nc3ccc(-c4ccc(S(=O)(=O)N[C@H](C(=O)O)C(C)C)cc4)cc3)c(C)c12 [Example 107, (S)-3-Methyl-2-{4′-[(3-methyl-4-propoxy-benzofuran-2-carbonyl)-amino]-biphenyl-4-sulfonylamino}-butyric acid]
19 | 3000 | 21 | Cc1c(C(=O)Nc2ccc(-c3ccc(S(=O)(=O)N[C@H](C(=O)O)C(C)C)cc3)cc2)oc2cccc(C#CC3CC3)c12 [Example 23, 2-{4′-[(4-Cyclopropylethynyl-3-methyl-benzofuran-2-carbonyl)-amino]-biphenyl-4-sulfonylamino}-3-methyl-butyric acid]
20 | 4290 | 13 | Cc1c(C(=O)Nc2ccc(-c3ccc(S(=O)(=O)N[C@H](C(=O)O)C(C)C)cc3)cc2)oc2cccc(OC(C)C)c12 [Example 108, (S)-2-{4′-[(4-Isopropoxy-3-methyl-benzofuran-2-carbonyl)-amino]-biphenyl-4-sulfonylamino}-3-methyl-butyric acid]
21 | 886 | 8 | CNc1cccc2oc(C(=O)Nc3ccc(-c4ccc(S(=O)(=O)N[C@H](C(=O)O)C(C)C)cc4)cc3)c(C)c12 [Example 60, L-3-Methyl-2-{4′-[(3-methyl-4-methylamino-benzofuran-2-carbonyl)-amino]-biphenyl-4-sulfonylamino}-butyric acid]
22 | 6200 | 25 | COC(=O)C(C)(C)Oc1cccc2oc(C(=O)Nc3ccc(-c4ccc(S(=O)(=O)N[C@H](C(=O)O)C(C)C)cc4)cc3)c(C)c12 [Example 156, L-2-(4′-{[4-(1-Methoxycarbonyl-1-methyl-ethoxy)-3-methyl-benzofuran-2-carbonyl]-amino}-biphenyl-4-sulfonylamino)-3-methyl-butyric acid]
23 | 3320 | 13 | Cc1c(C(=O)Nc2ccc(-c3ccc(S(=O)(=O)N[C@H](C(=O)O)C(C)C)cc3)cc2)oc2cccc(OCc3ccccn3)c12 [Example 178, (S)-3-Methyl-2-(4′-{[3-methyl-4-(pyridin-2-ylmethoxy)-benzofuran-2-carbonyl]-amino}-biphenyl-4-sulfonylamino)-butyric acid]

Row | Structure (SMILES) | IC50 (MMP-2) [nM] | IC50 (MMP-13) [nM]
24 | COc1c(C)ccc2oc(C(=O)Nc3ccc(-c4ccc(S(=O)(=O)N[C@H](C(=O)O)C(C)C)cc4)cc3)c(C)c12 [Example 125, (S)-2-{4′-[(5-Methyl-4-methoxy-3-methyl-benzofuran-2-carbonyl)-amino]-biphenyl-4-sulfonylamino}-3-methyl-butyric acid] | 1610 | 4.9
25 | CCc1ccc2oc(C(=O)Nc3ccc(-c4ccc(S(=O)(=O)N[C@H](C(=O)O)C(C)C)cc4)cc3)c(C)c2c1OCc1ccccc1 [Example 89, N-{[4′-({[4-(Benzyloxy)-5-ethyl-3-methyl-1-benzofuran-2-yl]carbonyl}amino)-1,1′-biphenyl-4-yl]sulfonyl}-L-valine] | 4340 | 67
